The text below walks through data of BindingDB's records for doi:10.3109/14756366.2011.599323 (China Pharmaceutical University, 2012).

As a reminder, the IC50 is the concentration needed to halve the response being measured. The low end stands for inhibition by little substance, the high end for a need for much substance.

Where a SMILES comes first, the peptide text is derived from it.

One test addresses Stromelysin-1 (Homo sapiens, UniProt P08254). Description: MMP-3 Activity Assay. Particulars: pH 7.4; 37 °C. As to the method: The activity of recombinant human MMP-3 (catalytic domain, Calbiochem) was detected with the substrate Mca-Arg-Pro-Lys-Pro-Val-Glu-Nval-Trp-Arg-Lys(Dnp)-NH2 (substrate II, R&D Systems Europe Ltd) (excitation wavelength = 320 nm, emission wavelength = 405 nm). These assays were performed at 37°C in 100 μl assay buffer. The reaction was started by adding 10 μl MMP-3 stock solution (1 ng/μl) to a 100 μl reaction system with a final substrate concentration of 10 μM, after which the rate of substrate hydrolysis was monitored.

For another test, the target named is Neutrophil collagenase (Homo sapiens, UniProt P22894). Description: MMP-8 Activity Assay. The settings on record: pH 7.4; 37 °C. As to the method: Recombinant human MMP-8 was purchased as an active form enzyme (Sino Biological Inc.). The enzyme activity was detected with the same fluorogenic peptidesubstrate as that for MMP-9. All MMP-8 assays were performed at 37°C in 100 μl assay buffer with 20 μl recombinant human MMP-8 (2 ng/μl). The final substrateconcentration was 10 μM.
Chain of Neutrophil collagenase (P22894 whole entry): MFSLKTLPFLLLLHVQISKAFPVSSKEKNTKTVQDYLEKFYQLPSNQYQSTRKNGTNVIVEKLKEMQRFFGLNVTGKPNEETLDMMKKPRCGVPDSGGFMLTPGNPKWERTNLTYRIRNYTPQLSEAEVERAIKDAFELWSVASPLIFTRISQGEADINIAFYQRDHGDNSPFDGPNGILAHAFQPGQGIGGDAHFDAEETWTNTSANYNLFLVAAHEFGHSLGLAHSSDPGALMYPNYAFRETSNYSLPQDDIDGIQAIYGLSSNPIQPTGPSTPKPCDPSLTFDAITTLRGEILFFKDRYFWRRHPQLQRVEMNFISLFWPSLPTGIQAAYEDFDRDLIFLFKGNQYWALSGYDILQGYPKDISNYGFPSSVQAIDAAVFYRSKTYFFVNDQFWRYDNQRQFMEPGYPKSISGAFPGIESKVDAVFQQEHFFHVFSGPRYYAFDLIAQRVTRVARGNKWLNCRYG

Test [1] has as its target Matrix metalloproteinase-9 (Homo sapiens, UniProt P14780). Kind of test: MMP-9 Activity Assay. The settings on record: pH 7.4; 37 °C. As to the method: Recombinant human MMP-9 was expressed in Sf9 insect cells and purified by gelatin-Sepharose affinity chromatography as described previously16,17. It was activated with 0.01 μM of the catalytic domain of MMP-3 (cd-MMP-3, Calbiochem) in assay buffer (100 mM Tris/HCl, pH 7.4, 100 mM NaCl, 10 mM CaCl2 and 0.01% Tween-20) at 92 ng/μl (1 μM) as a stock solution as described8. Hydrolysis of the substrate Mca-Pro-Leu-Gly-Leu-Dpa-Ala-Arg-NH2 (substrate I, R&D Systems Europe Ltd) was monitored by measuring the increase in fluorescence (excitation wavelength = 328 nm, emission wavelength = 392 nm) [Whittaker et al., Chem. Rev., 99:2735-2776]. All assays were performed at 37°C in 100 μl assay buffer. The reaction was started by adding 10 μl gelatinase B stock solution (0.92 ng/μl) to a 100 μl reaction system with a substrate concentration of 10 μM, after which the rate of substrate hydrolysis was monitored.

In test [2] the target is Disintegrin and metalloproteinase domain-containing protein 17 (Homo sapiens, UniProt P78536). Kind of test: TACE Activity Assay. The settings on record: pH 9.0. As to the method:
TACE was purchased as an active form enzyme (R&D Systems). Hydrolysis of the TACE-substrate Mca-Pro-Leu-Ala-Gln-Ala-Val-Dpa-Arg-Ser-Ser-Ser-Arg-NH (substrateIII, R&D Systems Europe Ltd) was monitored by measuring the increase in fluorescence (excitation wavelength = 320 nm, emission wavelength = 405 nm). TACEassays were performed at 37°C in 100 μl assay buffer. The reaction was started by adding 4 μl TACE stock solution (1 ng/μl) to a 100 μl reaction system with a final substrate concentration of 10 μM, after which the rate of substrate hydrolysis was monitored.

Chain of Matrix metalloproteinase-9 (P14780 whole entry, the tested form may be a part): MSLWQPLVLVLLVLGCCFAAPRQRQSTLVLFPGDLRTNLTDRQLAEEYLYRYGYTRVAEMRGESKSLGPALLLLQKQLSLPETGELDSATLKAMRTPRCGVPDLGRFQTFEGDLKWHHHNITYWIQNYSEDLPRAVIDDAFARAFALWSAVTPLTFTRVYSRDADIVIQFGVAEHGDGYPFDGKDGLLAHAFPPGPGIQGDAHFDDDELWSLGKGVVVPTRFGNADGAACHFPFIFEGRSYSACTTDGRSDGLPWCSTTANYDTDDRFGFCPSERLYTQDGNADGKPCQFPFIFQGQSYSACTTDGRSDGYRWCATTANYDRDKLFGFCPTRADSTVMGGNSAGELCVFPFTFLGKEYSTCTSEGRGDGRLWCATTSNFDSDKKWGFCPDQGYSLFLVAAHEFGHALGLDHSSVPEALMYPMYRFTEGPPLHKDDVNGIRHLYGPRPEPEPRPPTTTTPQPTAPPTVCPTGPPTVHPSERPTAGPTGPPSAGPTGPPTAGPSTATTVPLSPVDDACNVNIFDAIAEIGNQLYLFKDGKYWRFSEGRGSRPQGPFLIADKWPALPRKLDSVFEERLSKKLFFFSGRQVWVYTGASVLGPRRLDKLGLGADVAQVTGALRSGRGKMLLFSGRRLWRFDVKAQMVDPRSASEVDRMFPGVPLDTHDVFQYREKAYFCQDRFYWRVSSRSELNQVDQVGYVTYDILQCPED
Chain of Stromelysin-1 (P08254 whole entry, the tested form may be a part): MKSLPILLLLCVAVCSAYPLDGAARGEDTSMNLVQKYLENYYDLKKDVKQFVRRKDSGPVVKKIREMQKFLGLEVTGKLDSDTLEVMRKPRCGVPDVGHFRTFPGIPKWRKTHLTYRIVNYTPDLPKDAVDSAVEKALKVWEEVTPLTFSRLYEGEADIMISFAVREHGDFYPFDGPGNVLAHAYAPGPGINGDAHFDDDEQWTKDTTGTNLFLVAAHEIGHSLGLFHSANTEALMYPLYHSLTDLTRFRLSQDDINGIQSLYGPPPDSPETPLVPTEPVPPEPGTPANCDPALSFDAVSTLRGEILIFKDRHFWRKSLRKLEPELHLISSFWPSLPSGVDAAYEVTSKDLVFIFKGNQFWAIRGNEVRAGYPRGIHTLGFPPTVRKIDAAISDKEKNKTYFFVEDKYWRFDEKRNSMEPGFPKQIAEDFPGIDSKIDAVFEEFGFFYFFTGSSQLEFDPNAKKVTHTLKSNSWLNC
Chain of Disintegrin and metalloproteinase domain-containing protein 17 (P78536 whole entry, the tested form may be a part): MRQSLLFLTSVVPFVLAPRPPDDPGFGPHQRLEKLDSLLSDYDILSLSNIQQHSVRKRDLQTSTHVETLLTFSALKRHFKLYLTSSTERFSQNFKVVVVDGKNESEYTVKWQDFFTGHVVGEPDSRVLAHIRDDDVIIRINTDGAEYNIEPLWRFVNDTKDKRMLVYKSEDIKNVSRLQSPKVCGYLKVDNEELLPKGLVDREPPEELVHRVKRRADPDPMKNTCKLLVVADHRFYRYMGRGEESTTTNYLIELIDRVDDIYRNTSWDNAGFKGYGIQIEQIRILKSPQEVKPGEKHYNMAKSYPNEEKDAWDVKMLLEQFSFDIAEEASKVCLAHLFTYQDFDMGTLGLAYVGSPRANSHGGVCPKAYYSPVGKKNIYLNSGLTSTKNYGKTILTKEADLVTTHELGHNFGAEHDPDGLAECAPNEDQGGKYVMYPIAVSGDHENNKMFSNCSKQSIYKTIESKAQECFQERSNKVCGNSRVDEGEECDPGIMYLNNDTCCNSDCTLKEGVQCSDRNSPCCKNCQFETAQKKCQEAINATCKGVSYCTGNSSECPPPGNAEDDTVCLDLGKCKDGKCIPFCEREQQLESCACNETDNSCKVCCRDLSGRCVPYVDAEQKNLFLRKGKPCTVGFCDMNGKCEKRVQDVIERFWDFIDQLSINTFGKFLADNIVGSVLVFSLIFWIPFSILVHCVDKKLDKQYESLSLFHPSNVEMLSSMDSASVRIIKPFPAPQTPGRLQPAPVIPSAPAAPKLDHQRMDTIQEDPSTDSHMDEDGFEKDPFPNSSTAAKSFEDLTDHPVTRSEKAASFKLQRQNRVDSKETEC

In the case of `N=C(N)NCCC[C@H](NC(=O)[C@H](Cc1ccc(-c2ccccc2)cc1)NC(=O)[C@@H](CS)NC(=O)[C@@H](N)CCCNC(=N)N)C(=O)O` [Arg-(D-Cys)-Bip-Arg] (HELM PEPTIDE1{R.[dC].[O=C([C@H](Cc1ccc(-c2ccccc2)cc1)N[*:1])[*:2]].R}$$$$V2.0), the IC50 on Stromelysin-1 was determined as 22500 nM; at Neutrophil collagenase it was 900 nM; in test [1], 900 nM; in test [2] it was 2500 nM.

Regarding `N=C(N)NCCC[C@H](N)C(=O)N[C@@H](CS)C(=O)N[C@H](Cc1ccc(-c2ccccc2)cc1)C(=O)N[C@H](CCCNC(=N)N)C(=O)O` [Arg-Cys-(D-Bip)-(D-Arg)] (HELM PEPTIDE1{R.C.[O=C([C@@H](Cc1ccc(-c2ccccc2)cc1)N[*:1])[*:2]].[dR]}$$$$V2.0), the IC50 was 19500 nM on Stromelysin-1, 2300 nM on Neutrophil collagenase, 750 nM in test [1] and 20000 nM in test [2].
